Experimental data as given in US3979508A, “Compositions and methods therewith for penicillin hypersensitivity detection” (Kremers-Urban Company, priority 1975, dated 1976).
Several values for one entry are separate records, joined by “and”; a condition that tells them apart may be missing. Equal entries are not always repeated.

Test system: penicillin hypersensitivity (patients)
Assay: Clinical evaluation by 26 investigators: scratch/intradermal skin tests with PPL and Penicillin G (Tables IV-VII, IX-XI)
Format: in vivo, human
Conditions: for TOTAL (+) No. / TOTAL (+) Percent of total positive: skin reactive penicillin allergy patients
Experimental: Twenty-six clinical investigators contributed a total of 1160 cases to the evaluation. Patients were tested according to a protocol as follows:
1. All patients being subjected to allergy investigation were to be tested for penicillin hypersensitivity. Two preparations were to be used. These are:
2. Penicillin G (Benzyl Penicillin) in a concentration of 10,000 units per cc.
For maximum safety, it was recommended that the tests first be done by the scratch technique. Intradermal tests were then to be done on those showing negative scratch tests. In cases where the penicillin sensitivity was suspected to be of a violent character, more dilute reagents were recommended at the discretion of the individual investigator.
A uniform technique was recommended for the performance of the intradermal tests. Only a minimal amount of testing reagent was to be injected so as to make a barely discernible intradermal bleb. The amount necessary for this injection is about 0.01 to 0.03 cc. It was recognized that the intrepretation of the test results is an important matter. The reactions were to be recorded in terms of (1) the time required for the appearance of a reaction, (2) the size of erythema and (3) the size of whealing. These were to be recorded as actual measurements. Some objective measurement of dermographism was also to be recorded.
It was also contemplated that all patients who were to be treated with penicillin be tested as recommended above, even though they had previously received penicillin with impunity.
A comprehensive clinical history was takan on each patient with particular regard to previous penicillin therapy, and reaction.
In order to properly analyze the data on such a large number of patients, a data processing system was utilized.
Table IV summarizes the skin test results on all patients, without regard to other specific factors. […] It will also be noted that a significant number of patients reacted only to PPL, and another group only to Pen G. Therefore, to detect the maximum number of reactors, both test reagents would be required. A technical problem was classification of the ambiguous or borderline reactors, particularly those showing only erythema. Attempts to correlate the appearance of the erythematous flare without wheal formation with a history of penicillin hypersensitivity were unsuccessful. In some instances, however, erythema without wheal did appear to be associated with hypersensitivity to the antibiotic. The time of development of erythema without wheal varied widely from a few minutes to more than 7 days which also made its importance questionable. as a diagnostic sign. For these reasons erythema alone responses were counted with the negatives. In some instances, however, data will be presented in which erythema without wheal are counted as positive responses (figures appearing in parentheses).

[1] = Group I (675 patients): penicillin Rx, no hypersensitivity, erythema only counted as negative
[2] = Group I (675 patients): penicillin Rx, no hypersensitivity, parentheses: erythema only (ambiguous) counted as positive
[3] = Group II (352 patients): penicillin Rx & hypersensitive, erythema only counted as negative
[4] = Group II (352 patients): penicillin Rx & hypersensitive, parentheses: erythema only (ambiguous) counted as positive
[5] = Group III (70 patients): no penicillin Rx in past, erythema only counted as negative
[6] = Group III (70 patients): no penicillin Rx in past, parentheses: erythema only (ambiguous) counted as positive
[7] = Group IV (56 patients): no data, erythema only counted as negative
[8] = Group IV (56 patients): no data, parentheses: erythema only (ambiguous) counted as positive
[9] = TOTALS (1153 patients), erythema only counted as negative
[10] = TOTALS (1153 patients), parentheses: erythema only (ambiguous) counted as positive
[11] = TOTALS, all patients (1153 tested), erythema only counted as negative
[12] = TOTALS, all patients (1153 tested), parentheses: erythema only (ambiguous) counted as positive
[13] = all patients (1153 tested), erythema only counted as negative
[14] = all patients (1153 tested), parentheses: erythema only (ambiguous) counted as positive
[15] = history of therapy: Multi Courses (177 tested)
[16] = history of therapy: One Course (249 tested)
[17] = history of therapy: One Dose (152 tested)
[18] = history of therapy: TOTALS (578 tested)
[19] = penicillin reaction between 30 minutes and 24 hours post therapy (87 patients), erythema only counted as negative
[20] = penicillin reaction between 30 minutes and 24 hours post therapy (87 patients), parentheses: erythema only (ambiguous) counted as positive
[21] = penicillin reaction more than 24 hours post therapy (144 patients), erythema only counted as negative
[22] = penicillin reaction more than 24 hours post therapy (144 patients), parentheses: erythema only (ambiguous) counted as positive
[23] = penicillin reaction within 30 minutes post therapy (56 patients), erythema only counted as negative
[24] = penicillin reaction within 30 minutes post therapy (56 patients), parentheses: erythema only (ambiguous) counted as positive
[25] = reason for testing: "Penicillin" (240 tested)
[26] = reason for testing: Other Substances (463 tested)
[27] = reaction between 30 minutes and 24 hours post therapy, erythema only counted as negative
[28] = reaction between 30 minutes and 24 hours post therapy, parentheses: erythema only (ambiguous) counted as positive
[29] = reaction more than 24 hours post therapy, parentheses: erythema only (ambiguous) counted as positive
[30] = reaction within 30 minutes post therapy, parentheses: erythema only (ambiguous) counted as positive
[31] = type of hypersensitivity reaction: Skin (309 tested)
[32] = type of hypersensitivity reaction: Visceral (43 tested)

penicilloyl-poly-L-lysine [PPL]
Skin Test (+) No. [1]: 36
Skin Test (+) Percent [1]: 5.3%
Skin Test (-) No. [1]: 639
Skin Test (-) Percent [1]: 94.7%
Skin Test (+) No. [2]: 78
Skin Test (+) Percent [2]: 11.6%
Skin Test (-) No. [2]: 597
Skin Test (-) Percent [2]: 88.4%
Skin Test (+) No. [3]: 73
Skin Test (+) Percent [3]: 20.7%
Skin Test (-) No. [3]: 279
Skin Test (-) Percent [3]: 79.3%
Skin Test (+) No. [4]: 97
Skin Test (+) Percent [4]: 27.6%
Skin Test (-) No. [4]: 255
Skin Test (-) Percent [4]: 72.4%
Skin Test (+) No. [5]: 1
Skin Test (+) Percent [5]: 1.4%
Skin Test (-) No. [5]: 69
Skin Test (-) Percent [5]: 98.6%
Skin Test (+) No. [6]: 6
Skin Test (+) Percent [6]: 8.6%
Skin Test (-) No. [6]: 64
Skin Test (-) Percent [6]: 91.4%
Skin Test (+) No. [7]: 3
Skin Test (+) Percent [7]: 5.4%
Skin Test (-) No. [7]: 53
Skin Test (-) Percent [7]: 94.6%
Skin Test (+) No. [8]: 4
Skin Test (+) Percent [8]: 7.1%
Skin Test (-) No. [8]: 52
Skin Test (-) Percent [8]: 92.9%
SKIN TEST RESPONSE No. (No reactions (675 tested)): 36
SKIN TEST RESPONSE Percent (No reactions (675 tested)): 5.3%
Skin Test (-) No. [9]: 1040
Skin Test (-) Percent [9]: 90.2%
Skin Test (-) No. [10]: 968
Skin Test (-) Percent [10]: 84.0%
Skin Test (+) No. [11]: 113
Skin Test (+) Percent [11]: 9.8%
Skin Test (+) No. [12]: 185
Skin Test (+) Percent [12]: 16.1% and 16.0%
PPL (+) PG (+) No. [13]: 34
PPL (+) PG (+) Percent [13]: 3.0%
PPL (+) PG (-) No. [13]: 79
PPL (+) PG (-) Percent [13]: 6.9%
PPL (-) PG (+) No. [13]: 38
PPL (-) PG (+) Percent [13]: 3.3%
PPL (-) PG (-) No. [13]: 1002
PPL (-) PG (-) Percent [13]: 86.9%
PPL (+) PG (+) No. [14]: 80
PPL (+) PG (+) Percent [14]: 6.9%
PPL (+) PG (-) No. [14]: 105
PPL (+) PG (-) Percent [14]: 9.1%
PPL (-) PG (+) No. [14]: 49
PPL (-) PG (+) Percent [14]: 4.3%
PPL (-) PG (-) No. [14]: 919
PPL (-) PG (-) Percent [14]: 79.7%
positive skin tests, patients positive/patients in group (delayed (after 24 hours) group): 24/144
positive skin tests, percent of group (delayed (after 24 hours) group, 144 patients): 16.7%
Skin Reactions PPL- / PEN G- No. [15]: 14
Skin Reactions PPL- / PEN G- Percent [15]: 7.9%
Skin Reactions PPL- / PEN G- No. [16]: 14
Skin Reactions PPL- / PEN G- Percent [16]: 5.6%
Skin Reactions PPL- / PEN G- No. [17]: 24
Skin Reactions PPL- / PEN G- Percent [17]: 15.8%
Skin Reactions PPL- / PEN G- No. [18]: 52
Skin Reactions PPL- / PEN G- Percent [18]: 9.0%
positive skin tests, patients positive/patients in group (immediate reacting group (within 30 minutes)): 26/56
positive skin tests, percent of group (immediate reacting group (within 30 minutes), 56 patients): 46% and 46.5%
percent of skin-test positive patients that would be missed if only this reagent were used as skin test antigen (immediate reactor group): 16%
PL (+) PG (+) No. [19]: 12
PL (+) PG (+) Percent [19]: 13.8%
PPL (+) PG (-) No. [19]: 9
PPL (+) PG (-) Percent [19]: 10.4%
PPL (-) PG (+) No. [19]: 5
PPL (-) PG (+) Percent [19]: 5.7%
PPL (-) PG (-) No. [19]: 61
PPL (-) PG (-) Percent [19]: 70.0%
PL (+) PG (+) No. [20]: 14
PL (+) PG (+) Percent [20]: 16.1%
PPL (+) PG (-) No. [20]: 10
PPL (+) PG (-) Percent [20]: 11.5%
PPL (-) PG (+) No. [20]: 7
PPL (-) PG (+) Percent [20]: 8.0%
PPL (-) PG (-) No. [20]: 56
PPL (-) PG (-) Percent [20]: 64.4%
PL (+) PG (+) No. [21]: 8
PL (+) PG (+) Percent [21]: 5.6%
PPL (+) PG (-) No. [21]: 16
PPL (+) PG (-) Percent [21]: 11.1%
PPL (-) PG (+) No. [21]: 9
PPL (-) PG (+) Percent [21]: 6.2%
PPL (-) PG (-) No. [21]: 111
PPL (-) PG (-) Percent [21]: 77.1%
PL (+) PG (+) No. [22]: 11
PL (+) PG (+) Percent [22]: 7.6%
PPL (+) PG (-) No. [22]: 22
PPL (+) PG (-) Percent [22]: 15.3%
PPL (-) PG (+) No. [22]: 11
PPL (-) PG (+) Percent [22]: 7.6%
PPL (-) PG (-) No. [22]: 100
PPL (-) PG (-) Percent [22]: 69.4%
PL (+) PG (+) No. [23]: 12
PL (+) PG (+) Percent [23]: 21.4%
PPL (+) PG (-) No. [23]: 14
PPL (+) PG (-) Percent [23]: 25.0%
PPL (-) PG (+) No. [23]: 5
PPL (-) PG (+) Percent [23]: 8.9%
PPL (-) PG (-) No. [23]: 25
PPL (-) PG (-) Percent [23]: 44.6%
PL (+) PG (+) No. [24]: 15
PL (+) PG (+) Percent [24]: 26.8%
PPL (+) PG (-) No. [24]: 16
PPL (+) PG (-) Percent [24]: 28.6%
PPL (-) PG (+) No. [24]: 5
PPL (-) PG (+) Percent [24]: 8.9%
PPL (-) PG (-) No. [24]: 20
PPL (-) PG (-) Percent [24]: 35.7%
Skin Test (+) No. [25]: 31
Skin Test (+) Percent [25]: 12.9%
Skin Test (+) No. [26]: 21
Skin Test (+) Percent [26]: 4.5%
TOTAL (+) No. [27]: 21
TOTAL (+) Percent of total positive [27]: 80.8%
TOTAL (+) No. [28]: 24
TOTAL (+) Percent of total positive [28]: 77.4%
TOTAL (+) No. (reaction more than 24 hours post therapy, erythema only counted as negative): 24
TOTAL (+) No. [29]: 33
TOTAL (+) Percent of total positive [29]: 75.0%
TOTAL (+) No. (reaction within 30 minutes post therapy, erythema only counted as negative): 26
TOTAL (+) No. [30]: 31
TOTAL (+) Percent of total positive [30]: 86.1%
SKIN TEST RESPONSE No. [31]: 66
SKIN TEST RESPONSE Percent [31]: 21.4%
SKIN TEST RESPONSE No. [32]: 10
SKIN TEST RESPONSE Percent [32]: 23.3%
